Earlier results in patent US7985754B2, “Selective antagonists of A2A adenosine receptors” (Trovis Pharmaceuticals, LLC, priority 2006, dated 2011).

Columns and labels:
[1] = in words
[2] = in words; remark: listed apart in the source

Structure (SMILES) | solubility [1] | bioavailability [2]
Nc1nc2c(cnn2CCc2ccccc2)c2nc(-c3ccco3)nn12 [SCH58261] | very poorly soluble | 
Nc1nc(NCCc2ccc(O)cc2)nc2nc(-c3ccco3)nn12 [ZM241385] |  | poor bioavailability
